Data taken from ChEMBL document CHEMBL3612011, “Synthesis of new opioid derivatives with a propellane skeleton and their pharmacologies: Part 5, novel pentacyclic propellane derivatives with a 6-amide side chain” (Bioorg Med Chem, 2015).
Activity calls are given as the source filed them. The rule behind the calls is not given here.

What was measured:
Mu-type opioid receptor = Mu-type opioid receptor (Cavia porcellus, UniProt P97266); assay: Displacement of [3H]DAMGO from MOR in guinea pig cerebellum membranes; type: cell membranes, Membrane
Sequence of Mu-type opioid receptor (P97266 whole entry): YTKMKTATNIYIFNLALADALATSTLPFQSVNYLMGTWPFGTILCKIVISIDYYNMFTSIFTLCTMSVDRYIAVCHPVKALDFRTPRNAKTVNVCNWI

Mus musculus [1] = species on record: Mus musculus; assay: Selectivity index, ratio of Ki for DOR in mouse whole brain membranes without cerebellum to Ki for KOR in mouse whole brain membranes without cerebellum; type: cell membranes
[2] = Selectivity index, ratio of Ki for MOR in guinea pig cerebellum membranes to Ki for KOR in mouse whole brain membranes without cerebellum; type: cell membranes
[3] = biological target: Kappa-type opioid receptor (Mus musculus, UniProt P33534); assay: Displacement of [3H]U69,593 from KOR in mouse whole brain membranes without cerebellum; type: cell membranes, Membrane
Sequence of Kappa-type opioid receptor (Mus musculus, UniProt P33534) (P33534 whole entry): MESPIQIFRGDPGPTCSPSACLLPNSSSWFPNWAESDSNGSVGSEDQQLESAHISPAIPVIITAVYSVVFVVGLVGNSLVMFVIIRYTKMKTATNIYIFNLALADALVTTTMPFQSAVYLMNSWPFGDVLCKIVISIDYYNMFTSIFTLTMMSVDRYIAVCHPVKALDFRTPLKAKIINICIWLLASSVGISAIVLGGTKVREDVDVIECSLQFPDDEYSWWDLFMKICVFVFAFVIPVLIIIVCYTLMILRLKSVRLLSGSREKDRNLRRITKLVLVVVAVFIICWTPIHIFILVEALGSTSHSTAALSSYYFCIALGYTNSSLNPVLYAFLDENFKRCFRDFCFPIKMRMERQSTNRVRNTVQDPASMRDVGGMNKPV

[4] = biological target: Delta-type opioid receptor (Mus musculus, UniProt P32300); assay: Displacement of [3H]DPDPE from DOR in mouse whole brain membranes without cerebellum; type: cell membranes, Membrane
Sequence of Delta-type opioid receptor (P32300 whole entry): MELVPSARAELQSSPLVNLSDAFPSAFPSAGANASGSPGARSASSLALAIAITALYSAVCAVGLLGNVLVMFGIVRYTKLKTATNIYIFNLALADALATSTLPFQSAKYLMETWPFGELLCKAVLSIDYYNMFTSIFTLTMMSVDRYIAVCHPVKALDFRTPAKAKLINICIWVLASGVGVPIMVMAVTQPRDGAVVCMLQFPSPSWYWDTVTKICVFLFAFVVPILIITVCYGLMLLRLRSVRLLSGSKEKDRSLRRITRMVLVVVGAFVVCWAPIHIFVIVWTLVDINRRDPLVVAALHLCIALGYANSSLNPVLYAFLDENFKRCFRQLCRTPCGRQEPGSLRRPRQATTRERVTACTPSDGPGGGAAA

[5] = biological target: T1, Kappa-type opioid receptor (Homo sapiens, UniProt P41145); assay: Agonist activity at human KOR expressed in CHO cell membranes by [35S]GTPgammaS binding assay relative to U69,593; type: functional
T1 sequence (P41145 whole entry): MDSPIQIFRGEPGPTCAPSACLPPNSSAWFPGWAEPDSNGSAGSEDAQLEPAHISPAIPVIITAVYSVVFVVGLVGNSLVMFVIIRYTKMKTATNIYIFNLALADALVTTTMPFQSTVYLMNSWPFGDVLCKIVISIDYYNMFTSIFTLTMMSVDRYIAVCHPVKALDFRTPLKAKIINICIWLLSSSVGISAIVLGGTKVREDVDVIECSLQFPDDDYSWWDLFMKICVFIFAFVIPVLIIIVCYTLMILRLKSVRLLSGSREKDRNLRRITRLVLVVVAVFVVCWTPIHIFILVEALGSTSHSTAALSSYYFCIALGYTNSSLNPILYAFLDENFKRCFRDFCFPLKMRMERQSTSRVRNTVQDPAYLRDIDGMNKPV

Mus musculus [6] = species on record: Mus musculus; assay: Induction of sedation in ICR mouse by spontaneous locomotor activity test; type: organism-based; conditions: in vivo
[7] = Therapeutic index, ratio of ED50 for induction of sedation in ICR mouse by spontaneous locomotor activity test to ED50 for antinociceptive activity in ICR mouse by acetic acid abdominal constriction test; type: organism-based, Abdomen; conditions: in vivo, read-out: Ratio ED50
[8] = biological target: T1, Kappa-type opioid receptor; assay: Agonist activity at human KOR expressed in CHO cell membranes by [35S]GTPgammaS binding assay; type: functional
Mus musculus [9] = assay: Antinociceptive activity in ICR mouse assessed as reduction in acetic acid-induced abdominal writhing dosed subcutaneously 15 mins before acetic acid challenge and treated 24 hrs after 10 mg/kg, sc KOR antagonist nor-Binaltorphimin dosing; type: functional, organism-based; conditions: Abdomen
Mus musculus [10] = assay: Antinociceptive activity in ICR mouse assessed as reduction in acetic acid-induced abdominal writhing dosed subcutaneously 15 mins before acetic acid challenge; type: functional; conditions: Abdomen; for ED50: sc

SMILES	Ki (Mu-type opioid receptor)	Ratio Ki (Mus musculus [1])	Ratio Ki [2]	Ki [3]	Ki [4]	Emax [5]	ED50 (Mus musculus [6])	selectivity ratio [7]	EC50 [8]	inhibition (Mus musculus [9])	inhibition (Mus musculus [10])	ED50 (Mus musculus [10])
CN(C(=O)c1ccccc1)[C@@H]1C[C@@]23CCN(CC4CC4)[C@H]4C=C[C@@H]1C[C@]42Cc1ccc(O)cc13	2.7 nM	0.5	0.61	4.46 nM	2.23 nM	–	–	–	–	–	–	–
CN(C(=O)c1ccccc1)[C@H]1C[C@@]23CCN(CC4CC4)[C@H]4CCC1C[C@]42Cc1ccc(O)cc13 (single isomer, unassigned)	56 nM	0.092	4.06	13.8 nM	1.27 nM	–	–	–	–	–	–	–
CN(C(=O)CCc1ccccc1)[C@H]1C[C@@]23CCN(CC4CC4)[C@H]4CCC1C[C@]42Cc1ccc(O)cc13 (single isomer, unassigned)	11.5 nM	2.72	0.966	11.9 nM	32.4 nM	–	–	–	–	–	–	–
CN(C(=O)Cc1ccccc1)[C@H]1C[C@@]23CCN(CC4CC4)[C@H]4CCC1C[C@]42Cc1ccc(O)cc13 (single isomer, unassigned)	59.6 nM	1.36	5.42	11 nM	15 nM	–	–	–	–	–	–	–
CN(C(=O)Cc1ccccc1)[C@H]1C[C@@]23CCN(CC4CC4)[C@H]4C=C[C@@H]1C[C@]42Cc1ccc(O)cc13	12.2 nM	2.6	7.05	1.73 nM	4.5 nM	–	–	–	–	–	–	–
CN(C(=O)/C=C/c1ccoc1)[C@H]1C[C@@]23CCN(CC4CC4)[C@H]4C=C[C@@H]1C[C@]42Cc1ccc(O)cc13.Cl	13.9 nM	17.3	17	0.82 nM	14.2 nM	108%	7.74 mg/kg	13.1	11.8 nM	inactive	Dose-dependent effect	0.589 mg/kg
CN(C(=O)CCc1ccccc1)[C@@H]1C[C@@]23CCN(CC4CC4)[C@H]4C=C[C@@H]1C[C@]42Cc1ccc(O)cc13	0.51 nM	7.49	1.09	0.47 nM	3.52 nM	–	–	–	–	–	–	–
CN(C(=O)Cc1ccccc1)[C@@H]1C[C@@]23CCN(CC4CC4)[C@H]4C=C[C@@H]1C[C@]42Cc1ccc(O)cc13	0.42 nM	6.92	1.75	0.24 nM	1.66 nM	–	–	–	–	–	–	–
CN(C(=O)c1ccccc1)[C@H]1C[C@@]23CCN(CC4CC4)[C@H]4C=C[C@@H]1C[C@]42Cc1ccc(O)cc13	47.6 nM	0.493	3.63	13.1 nM	6.46 nM	–	–	–	–	–	–	–
CN(C(=O)c1ccccc1)[C@@H]1C[C@@]23CCN(CC4CC4)[C@H]4CCC1C[C@]42Cc1ccc(O)cc13 (single isomer, unassigned)	0.28 nM	6.72	0.516	0.543 nM	3.65 nM	–	–	–	–	–	–	–
CN(C(=O)Cc1ccccc1)[C@@H]1C[C@@]23CCN(CC4CC4)[C@H]4CCC1C[C@]42Cc1ccc(O)cc13 (single isomer, unassigned)	0.197 nM	8.75	1.45	0.136 nM	1.19 nM	–	–	–	–	–	–	–
CN(C(=O)CCc1ccccc1)[C@@H]1C[C@@]23CCN(CC4CC4)[C@H]4CCC1C[C@]42Cc1ccc(O)cc13 (single isomer, unassigned)	0.229 nM	10.2	2.03	0.113 nM	1.15 nM	–	–	–	–	–	–	–
CN(C(=O)/C=C/c1ccoc1)[C@@H]1C[C@@]23CCN(CC4CC4)[C@H]4C=C[C@@H]1C[C@]42Cc1ccc(O)cc13	0.57 nM	17.3	2.48	0.23 nM	3.98 nM	–	–	–	–	–	–	–
CN(C(=O)/C=C/c1ccoc1)[C@@H]1C[C@@]23CCN(CC4CC4)[C@H]4CC[C@@H]1C[C@]42Cc1ccc(O)cc13	0.232 nM	0.89	1.14	0.204 nM	0.182 nM	–	–	–	–	–	–	–
CN(C(=O)CCc1ccccc1)[C@H]1C[C@@]23CCN(CC4CC4)[C@H]4C=C[C@@H]1C[C@]42Cc1ccc(O)cc13	4.36 nM	5.75	2.34	1.86 nM	10.7 nM	–	–	–	–	–	–	–
CN(C(=O)/C=C/c1ccoc1)[C@@H]1CC[C@@]2(O)[C@H]3Cc4ccc(O)c5c4[C@@]2(CCN3CC2CC2)[C@H]1O5.Cl [NALFURAFINE HYDROCHLORIDE]	–	–	–	–	–	–	0.0344 mg/kg	–	–	–	–	0.00622 mg/kg
CN(C(=O)/C=C/c1ccoc1)[C@H]1C[C@@]23CCN(CC4CC4)[C@H]4CC[C@@H]1C[C@]42Cc1ccc(O)cc13	47.9 nM	2.28	5.73	8.36 nM	19.1 nM	–	–	–	–	–	–	–
